Assay results taken from a melting point compilation (Tetko et al.).

Structure (SMILES) | melting point [°C]
O=S(=O)(c1cccc(-c2nnc(S)o2)c1)N1CCCCC1 | 205 to 207
O=C(O)c1ncoc1C(F)(F)F | 94 to 96
Cc1cc(-c2csc(N)n2)c(C)s1 | 72 to 74
CC(C)Cc1cc(C(=O)O)cc(O)n1 | 235 to 237
Cc1cc(CNCc2cc(C)c(O)c(C)c2)cc(C)c1O | 249 to 251
CCc1ccc(OCc2nnc(S)n2C(C)c2ccccc2)cc1 (stereo not given) | 143 to 145
CNc1sccc1C#N | 71 to 73
O=C(Nc1ccccc1)c1ccc(Cl)nn1 | 213 to 215
O=c1c(Cl)nccn1C1CC1 | 90 to 92
CC(CC(=O)c1cccc(Br)c1)C(=O)O (stereo not given) | 95 to 97
CCOC(=O)CNc1ccccc1-c1ccccc1 | 53 to 55
O=C(O)c1ccc(CN2CCc3ccccc32)cc1 | 182 to 184
Cc1ccc2ncc(C(=O)O)c(=O)n2c1 | 259 to 261
Oc1ccc(C2SCCCS2)cc1 | 154 to 156
FC(F)(F)Cn1c(S)nnc1N1CCOCC1 | 175 to 177
COc1ccc(-c2[nH]c3ccccc3c2CCC(=O)O)cc1 | 134 to 136
Cc1nn(CC(=O)OC(C)C)c(C)c1C=O | 104 to 106
O=C(O)CCCn1ccccc1=O | 121 to 123
Fc1ccc2c(Cl)ccnc2c1 | 71 to 73
CSc1nc(Cl)cc(CCl)n1 | 28 to 32
CC(=O)NCC(O)c1ccccc1 (stereo not given) | 119 to 121
Oc1ccccc1CNC1CCCCC1 | 61 to 63
CC1CC(=O)c2cccc(Br)c21 (stereo not given) | 45 to 47
O=C(O)Cc1coc(-c2ccc(F)c(F)c2)n1 | 144 to 146
Nc1cccc(Oc2ccnc3ccccc23)c1 | 114 to 116

Structure (SMILES) | melting point [°C]
C=CCNS(=O)(=O)c1cc(C(=O)O)ccc1F | 164 to 166
CC(=O)Oc1cccc(C(=O)O)c1 | 131 to 134
ON=Cc1ccccc1OCc1cn2ccccc2n1 | 197 to 199
O=C(Nc1cccc(O)c1)c1ccsc1 | 165 to 167
COc1ccccc1Nc1nc(-c2ccc(C)cc2)cs1 | 143 to 145
O=Cc1ccc(N2CCNCC2)s1 | 59 to 63
Oc1ccc2nccnc2c1 | 225 to 227
O=C1CCCN1CO | 79 to 81
N#Cc1ccsc1NC(=O)CCCl | 150 to 152
CCN(C(=O)CCl)c1nc2ccccc2s1 | 233 to 235
CCN(CC)S(=O)(=O)c1cc(C(=O)O)ccc1F | 159 to 161
Cc1cc(-c2nnc3ccccn23)ccc1N | 180 to 182
N#Cc1ccc(Oc2ccccc2C(F)(F)F)nc1 | 80 to 82
CS(=O)(=O)c1c(N)cccc1Cl | 97 to 99
Cc1nn(-c2ccc(Cl)cc2)c(C)c1C=O | 131 to 133
CCCC1NC(=O)NC1=O (stereo not given) | 132 to 136
CCOC(=O)c1oc(N)nc1C | 219 to 221
O=C(O)CNCCO | 184 to 186
O=C(O)c1cc(Cl)nc(Cl)n1 | 114 to 116
CC(C)C(Br)C(=O)c1ccccc1 (stereo not given) | 49 to 51
CC(C)(C)OC(=O)NC(C(N)=NO)c1ccccc1OC(F)(F)F (stereo not given) | 119 to 121
NC(C(=O)O)c1cccc(Br)c1 (stereo not given) | 221 to 223
CC(C)(C)OC(=O)Nc1ccc(F)cc1N | 131 to 133
CCOC(=O)/C(=C(/O)C(C)Cl)c1nc(C)cs1 (stereo not given) | 123 to 125
CC1CCCC(C(N)C(=O)O)C1 (stereo not given) | 301 to 303

Structure (SMILES) | melting point [°C]
CN(C)S(=O)(=O)c1ccc(C(=O)O)cc1 | 249 to 251
O=C(O)c1ccc(S(=O)(=O)NC2CC2)cc1 | 243 to 245
O=C(Nc1cccc(O)c1)C1CC1 | 184 to 186
O=C(O)c1cccc(S(=O)(=O)N2CCCc3ccccc32)c1 | 98 to 100
COc1cc(Br)ccc1C(=O)O | 154 to 156
O=c1[nH]c2ccc(S(=O)(=O)Cl)cc2[nH]c1=O | 304 to 306
COc1ccc(COc2ccc(C#N)cn2)cc1 | 101 to 103
CC(=O)CC(=O)Nc1ccc(C)c(Cl)c1 | 108 to 110
NCc1ccnc(N2CCCC2)n1 | 63 to 65
Nc1cccc2[nH]cnc12 | 110 to 112
CC(=O)Nc1cccc2c1CCCN2 | 144 to 146
COc1ccccc1N(C)S(=O)(=O)c1ccc(C)c(C(=O)O)c1 | 153 to 155
O=S(=O)(F)Cc1ccc(Cl)nc1 | 81 to 83
COc1ccc2c(c1)CCCC(=O)N2 | 142 to 144
O=[N+]([O-])c1ccc(Cl)c2cccnc12 | 130 to 138
COC(=O)Nc1cccc(O)c1 | 95 to 97
O=C(O)c1nnn(-c2ccccc2)c1C(F)(F)F | 132 to 134
Cc1ccc(S(=O)(=O)N2CCCC2C(=O)O)cc1 (stereo not given) | 96 to 98
CC(C)(C)C(=O)Nc1ccc(Cl)c(C(F)(F)F)c1 | 132 to 134
Nc1ncccc1OCc1cccnc1 | 104 to 106
Cc1ccc(S(=O)(=O)Cl)cc1C(=O)O | 149 to 151
Cc1ccc(-c2nc(C(=O)O)cs2)o1 | 194 to 196
COc1cc(OC)cc(-n2c(C)c(C)c(C#N)c2N)c1 | 166 to 168
O=C(O)C1CC1c1ccc(OC(F)(F)F)cc1 (stereo not given) | 96 to 98
COc1cccc(-n2c(C)cc(C(=O)O)c2C)c1 | 142 to 144

Structure (SMILES) | melting point [°C]
CC(Br)c1ccc2ccccc2c1 (stereo not given) | 62 to 64
Nc1ccccc1C(=O)Nc1ccc(F)cc1 | 109 to 112
O=C(c1ccccc1)C1CCOCC1 | 57 to 59
CCCN1CCc2c(sc(N)c2C(N)=O)C1 | 139 to 141
Nc1nc(Cc2ccc(Cl)cc2Cl)cs1 | 96 to 98
O=C(CCCl)Nc1ccc2c(c1)OCO2 | 142 to 144
Clc1nccc(OCc2ccccc2)n1 | 49 to 51
Sc1nnc(-c2cc3ccccc3o2)o1 | 249 to 251
O=C(Cn1cc(C(=O)O)cn1)NC1CCCCC1 | 247 to 249
CC(C)Oc1ccc(C(=O)O)cn1 | 122 to 124
COc1cc(Br)ccc1C(N)=O | 134 to 136
CCc1cccc(CC(=O)O)c1 | 58 to 60
O=C(O)C1CC1c1cc(Cl)cc(Cl)c1 (stereo not given) | 134 to 136
CC(=O)NCCc1cc(C(=O)CCl)ccc1F | 97 to 99
Nc1ccc(NC(=O)C2CC2)cc1C(F)(F)F | 145 to 147
CCOC(=O)c1cccnc1NC | 46 to 48
CCCc1nc(N)sc1CC | 53 to 55
CCOC(=O)c1cc(CC)sc1NC(=O)CCl | 74 to 76
COc1ncccc1C(N)=O | 130 to 132
Nc1nc(C(F)(F)F)cs1 | 66 to 68
O=C(O)c1ccc2noc(-c3ccccc3)c2c1 | 242 to 244
O=C(O)c1cccc(-n2cc(Br)cn2)c1 | 195 to 197
Cc1cc(C(=O)O)c(N)s1 | 126 to 128
COc1ccc(S(N)(=O)=O)c(OC)c1C(=O)O | 151 to 153
COC(=O)c1ccc2c(=O)[nH]c(C)nc2c1 | 274 to 276

Structure (SMILES) | melting point [°C]
CCNC(=O)c1cccc(C)c1O | 64 to 66
O=C(O)CCCN1C(=O)CCC1=O | 102 to 104
CC(=O)c1oc2ccccc2c1NC(=O)C(C)Cl (stereo not given) | 105 to 107
O=Cc1cscn1 | 61 to 63
COC(=O)c1ccc(COc2ccccc2C=O)cc1 | 90 to 92
CCOC(=O)c1oc2c(Br)cccc2c1C | 68 to 70
NNC(=O)c1ccc(F)cc1Cl | 161 to 163
O=C(O)c1cnc2ccc(Br)cn2c1=O | 218 to 220
Fc1ccc(-c2nc(CCl)no2)cc1 | 51 to 55
Sc1nnc(NC2CC2)s1 | 170 to 172
NCCc1c[nH]c2cc(F)ccc12 | 74 to 76
O=C(O)Cn1cc([N+](=O)[O-])cn1 | 153 to 155
ClCc1coc(-c2ccccc2Cl)n1 | 54 to 56
Cc1cc(N)nn1-c1ccccc1Cl | 63 to 65
CCOc1ccc(NC(=O)CCl)cc1S(=O)(=O)N1CCCCC1 | 129 to 131
CC(C)(C)Oc1ccc(N)cc1 | 60 to 62
N#CCc1nc2cc(Cl)ccc2c(=O)[nH]1 | 282 to 284
NC(Cc1c[nH]c2cc(F)ccc12)C(=O)O (stereo not given) | 283 to 285
CC(C)c1nnc(S)n1C1CC1 | 146 to 148
NC(=S)/C(=C/c1ccccc1O)C(=O)O | 243 to 245
Cc1cc(C)c(C(N)=O)c(Cl)n1 | 172 to 174
O=[N+]([O-])C=Cc1ccc(SC(F)(F)F)cc1 | 136 to 138
CC(C)CN1CCOC(CNC(=O)CCl)C1 (stereo not given) | 83 to 85
Cc1ccc(C(=O)N(C)c2ccc(O)cc2)cc1 | 115 to 117
Cc1cc(N2CCCC2=O)ccc1Br | 107 to 109

Structure (SMILES) | melting point [°C]
CC(=O)c1nc2ccc(Cl)cc2[nH]1 | 173 to 175
NC(=O)c1cncc(Cl)n1 | 166 to 168
CCOC(=O)c1ccc(S(N)(=O)=O)nc1 | 114 to 116
CCN(CC)S(=O)(=O)c1ccc(NC(=O)CCl)cc1 | 103 to 105
N#Cc1cc2c(nc1N)CCCC2 | 195 to 197
Nc1nc(Cl)ccc1F | 84 to 86
CSc1cc(N)ccn1 | 79 to 81
O=C(O)Cn1c(=O)n(C2=CCCCC2)c2ccccc21 | 145 to 147
COCc1cccc(C(=O)O)c1 | 64 to 66
COC(=O)C1Nc2ccccc2S(=O)(=O)N1 (stereo not given) | 171 to 173
NS(=O)(=O)c1cc([N+](=O)[O-])ccc1Br | 204 to 206
NNc1ccc(S(=O)(=O)Nc2ccc(Cl)cc2)cc1[N+](=O)[O-] | 187 to 189
CC(C)CC(C(=O)O)N1C(=O)C2CC=CCC2C1=O (stereo not given) | 135 to 137
O=C(O)c1ccccc1S(=O)(=O)C(F)(F)F | 107 to 109
Nc1c(-c2ccc(F)cc2)nc2sccn12 | 137 to 139
Nc1ncc(Br)cc1F | 87 to 89
CCC(=O)c1cc(F)cc(Br)c1 | 29 to 31
CS(=O)(=O)Cc1cccc(N)c1 | 121 to 123
Cc1cccc(OCCNC(=O)C(C)Cl)c1 (stereo not given) | 57 to 59
O=S(=O)(c1ccc(Cl)c(N=C=S)c1)N1CCOCC1 | 118 to 120
